Data as given in patent publication US20040209799A1, “JAK/STAT pathway inhibitors and the uses thereof” (priority 2000, published 2004).

Assays:
[1] = system: rhIL-1β-induced mRNAs in human articular chondrocytes; assay: northern blot, rhIL-1β-induced mRNAs, comparison of DBH forms (some mRNAs, not named); assay type: cell-based; details: 5 μM, for some mRNAs
Description: (§1) Frozen human articular chondrocyte cell strain HC30-0198 (described in Example 1) was thawed, and cultured in monolayer in T150 tissue culture flasks (Corning Costar, Cambridge, Mass.) as described above to 1-5 days post-confluence. Test cultures were rinsed in PBS, and preincubated for 2 hours with 10 ml of serum-free DMEM containing 5 μM DBH (synthetic), in its free base or trifluoroacetic acid salt form. An additional 10 ml of serum-free DMEM containing 5 μM DBH, 4 ng/ml recombinant human interleukin-1β (rhIL-1β; final concentration of 2 ng/ml) (R&D Systems, Minneapolis, Minn.), and 2% antibiotic solution (final concentration of 1%), were then added for 24 hours.
(§2) Two control cultures were run in parallel: one without DBH (rhIL-1β alone), and another without DBH or rhIL-1β.
(§3) Total RNA was fixed to the membrane using a Stratalinker® 1800 UV Crosslinker (Stratagene, La Jolla, Calif.). […]
(§4) The blot was successively washed two times in 2×SSC/0.05% SDS (15 min/wash at room temperature), and two times in 0.1×SSC/0.1% SDS (30 minutes/wash at 65° C.). The blot was allowed to air dry, and the radioactive signal was visualized and quantified using a Fujifilm, BAS-1500 phosphorimager (Fuji, Stamford, Conn.). […]

[2] = system: IL-1α-induced aggrecanase activity in bovine chondrocytes; assay: IL-1α-induced 35S-labeled proteoglycan release (aggrecanase activity) in bovine chondrocytes; assay type: cell-based; details: Bos taurus, Chondrocyte, 1 ng/ml rhIL-1α, primary bovine articular chondrocytes
Description: Primary bovine articular chondrocytes were isolated from the dissected articular cartilage of calf stifle joints using a thirty minute (37° C.) 1 mg/ml hyaluronidase (Boehringer Mannheim, Indianapolis, Ind.) treatment, followed by a thirty minute (37° C.) 2 mg/ml collagenase P (Boehringer Mannheim, Indianapolis, Ind.) and 2.5 mg/ml trypsin (GIBCO/BRL, Gaithersburg, Md.) treatment. Enzyme solutions were prepared in serum-free 1:1 Delbecco's modified essential medium/Ham's F-12 (DMEM/F12), and filter sterilized with a 0.22 μm Millex®-GV filter (Millipore S. A., Molsheim, France). A third, overnight digestion (0.5 mg/ml collagenase P at 37° C.) was performed in a Bellco stir flask.
Bovine chondrocytes were recovered by addition of an equal volume of DMEM/F12 supplemented with 10% fetal bovine serum (FBS) to neutralize enzymes, filtered through a 70 μm nylon Falcon® Cell Strainer (Beckton Dickinson, Franklin Lakes, N.J.), and centrifuged at 1000×g for 10 min at room temperature. […]
On day 28, the 0.5 ml media was removed and placed in a scintillation minivial. 4 ml of scintillation fluid was added and radioactivity in the media was quantified by scintillation counting. The cell layer was rinsed in PBS and harvested with 0.5 ml of 1× trypsin-EDTA, and quantified by scintillation counting as above. […]
Data were determined and expressed as follows: […]

[3] = system: tumor necrosis factor-α (TNF-α) mRNA; assay: northern blot, IL-1β-induced mRNA in human articular chondrocytes: TNF-α; assay type: cell-based; details: 5 μM, 2 ng/ml rhIL-1β, 24 hours, free base or trifluoroacetic acid salt form
Description: as §1, §2, §3, §4

[4] = system: collagenase 1 (MMP1) mRNA; assay: northern blot, IL-1β-induced mRNA in human articular chondrocytes: collagenase 1; assay type: cell-based; details: 5 μM, 2 ng/ml rhIL-1β, 24 hours, free base or trifluoroacetic acid salt form
Description: as §1, §2, §3, §4

NF-κB (p65) mRNA = assay: northern blot, IL-1β-induced mRNA in human articular chondrocytes: NF-κB; assay type: cell-based; details: 5 μM, 2 ng/ml rhIL-1β, 24 hours, free base or trifluoroacetic acid salt form
Description: as §1, §2, §3, §4

[5] = system: chondrocytes in culture and explants of articular cartilage; details: cited from earlier work
[6] = system: interleukin-6 (IL-6) mRNA; assay: northern blot, IL-1β-induced mRNA in human articular chondrocytes: IL-6; assay type: cell-based; details: 5 μM, 2 ng/ml rhIL-1β, 24 hours, free base or trifluoroacetic acid salt form
Description: as §1, §2, §3, §4

[7] = system: cyclooxygenase II (COX2) mRNA; assay: northern blot, IL-1β-induced mRNA in human articular chondrocytes: COX2; assay type: cell-based; details: 5 μM, 2 ng/ml rhIL-1β, 24 hours, free base or trifluoroacetic acid salt form
Description: as §1, §2, §3, §4

[8] = system: stromelysin-1 (MMP3) mRNA; assay: northern blot, IL-1β-induced mRNA in human articular chondrocytes: stromelysin-1; assay type: cell-based; details: 5 μM, 2 ng/ml rhIL-1β, 24 hours, free base or trifluoroacetic acid salt form
Description: as §1, §2, §3, §4

Compound	inhibition of rhIL-1β-induced mRNAs, compared with the trifluoroacetic acid salt form [1]	inhibition at 5 µM [2]	inhibition of IL-1β-induced upregulation of tumor necrosis factor-α (TNF-α) mRNA [3]	inhibition of IL-1β-induced upregulation of collagenase 1 (MMP1) mRNA [4]	inhibition of IL-1β-induced upregulation of NF-κB (p65) mRNA (NF-κB (p65) mRNA)	inhibition of IL-1 induced degradation of glycosaminoglycan and extracellular matrix [5]	inhibition of IL-1β-induced upregulation of interleukin-6 (IL-6) mRNA [6]	inhibition of IL-1β-induced upregulation of cyclooxygenase II (COX2) mRNA [7]	inhibition of IL-1β-induced upregulation of stromelysin (MMP3) mRNA [8]
NC1=NC(=O)C(=C2CCNC(=O)c3[nH]ccc32)N1 [DBH-2FB]	to a greater extent than the trifluoroacetic acid salt form of DBH	100%	–	–	–	–	–	–	–
NC1=NC(=O)C(=C2CCNC(=O)c3[nH]ccc32)N1 [DBH, 4-(2-amino-4-oxo-2-imidazolin-5-ylidene)-4,5,6,7-tetrahydropyrrolo(2,3-c) azepine-8-one]	–	–	inhibit to various degrees	inhibit to various degrees	inhibit to various degrees	inhibit	inhibit to various degrees	inhibit to various degrees	inhibit to various degrees
